Laboratory results taken from patent US9580437B2, “Triazolopyrimidine compounds and uses thereof” (Novartis AG, priority 2014, dated 2017).

Experiments:
EED (1-441)-His protein = EED (1-441)-His protein (Homo sapiens (Human), UniProt O75530); assay: EED-H3K27Me3 peptide competition binding assay by AlphaScreen; conditions: read-out: (a) IC50 EED Alphascreen binding Qualified
From the text: EED-H3K27Me3 peptide competition binding assay by AlphaScreen (α-screen)

[1] = target: wild type PRC2 (wtPRC2) complex (Homo sapiens (Human), UniProt O75530); assay: EED LC-MS assay; format: biochemical; conditions: read-out: (b) IC50 EED LC-MS Qualified
Description: A 6 μL solution of 3 μM of the peptide substrate H3K27Me0 (histone H3[21-44]-biotin) in reaction buffer was added to initiate each reaction. […] ELISA (H3K27 Methylation) Assay

wild type PRC2 (wtPRC2) complex, sequence (O75530 whole entry): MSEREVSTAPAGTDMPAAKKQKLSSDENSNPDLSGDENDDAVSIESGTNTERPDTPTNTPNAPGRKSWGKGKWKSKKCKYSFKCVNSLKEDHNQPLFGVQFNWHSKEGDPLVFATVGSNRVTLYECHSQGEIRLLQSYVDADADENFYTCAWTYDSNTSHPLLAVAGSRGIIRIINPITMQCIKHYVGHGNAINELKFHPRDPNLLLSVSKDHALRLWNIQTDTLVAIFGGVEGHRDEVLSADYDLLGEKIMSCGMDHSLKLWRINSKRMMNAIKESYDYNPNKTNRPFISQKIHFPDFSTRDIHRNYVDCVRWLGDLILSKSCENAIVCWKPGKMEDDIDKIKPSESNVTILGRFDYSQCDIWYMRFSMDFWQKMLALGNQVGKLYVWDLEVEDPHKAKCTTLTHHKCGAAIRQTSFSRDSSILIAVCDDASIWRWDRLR
wild type PRC2 (wtPRC2) complex, sequence (Q15910 whole entry partner): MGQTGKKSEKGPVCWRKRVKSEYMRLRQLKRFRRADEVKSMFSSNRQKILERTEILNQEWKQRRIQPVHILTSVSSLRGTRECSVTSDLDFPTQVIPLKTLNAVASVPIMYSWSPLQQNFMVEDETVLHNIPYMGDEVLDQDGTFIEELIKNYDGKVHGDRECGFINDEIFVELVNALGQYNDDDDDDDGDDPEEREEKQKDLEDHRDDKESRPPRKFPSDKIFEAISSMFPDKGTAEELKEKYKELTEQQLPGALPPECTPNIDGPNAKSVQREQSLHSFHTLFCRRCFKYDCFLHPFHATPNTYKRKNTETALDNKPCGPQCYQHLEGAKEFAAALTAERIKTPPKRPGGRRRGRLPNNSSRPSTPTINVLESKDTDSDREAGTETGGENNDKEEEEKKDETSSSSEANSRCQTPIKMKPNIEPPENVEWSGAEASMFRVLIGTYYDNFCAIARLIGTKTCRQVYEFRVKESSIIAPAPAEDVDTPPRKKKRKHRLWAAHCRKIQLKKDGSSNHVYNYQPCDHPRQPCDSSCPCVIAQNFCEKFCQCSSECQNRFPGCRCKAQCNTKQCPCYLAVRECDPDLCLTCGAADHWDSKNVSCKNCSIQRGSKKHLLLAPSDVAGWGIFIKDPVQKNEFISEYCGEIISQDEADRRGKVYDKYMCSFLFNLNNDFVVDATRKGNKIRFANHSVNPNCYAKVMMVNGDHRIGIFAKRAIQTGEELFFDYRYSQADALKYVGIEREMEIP
wild type PRC2 (wtPRC2) complex, sequence (Q15022 whole entry partner): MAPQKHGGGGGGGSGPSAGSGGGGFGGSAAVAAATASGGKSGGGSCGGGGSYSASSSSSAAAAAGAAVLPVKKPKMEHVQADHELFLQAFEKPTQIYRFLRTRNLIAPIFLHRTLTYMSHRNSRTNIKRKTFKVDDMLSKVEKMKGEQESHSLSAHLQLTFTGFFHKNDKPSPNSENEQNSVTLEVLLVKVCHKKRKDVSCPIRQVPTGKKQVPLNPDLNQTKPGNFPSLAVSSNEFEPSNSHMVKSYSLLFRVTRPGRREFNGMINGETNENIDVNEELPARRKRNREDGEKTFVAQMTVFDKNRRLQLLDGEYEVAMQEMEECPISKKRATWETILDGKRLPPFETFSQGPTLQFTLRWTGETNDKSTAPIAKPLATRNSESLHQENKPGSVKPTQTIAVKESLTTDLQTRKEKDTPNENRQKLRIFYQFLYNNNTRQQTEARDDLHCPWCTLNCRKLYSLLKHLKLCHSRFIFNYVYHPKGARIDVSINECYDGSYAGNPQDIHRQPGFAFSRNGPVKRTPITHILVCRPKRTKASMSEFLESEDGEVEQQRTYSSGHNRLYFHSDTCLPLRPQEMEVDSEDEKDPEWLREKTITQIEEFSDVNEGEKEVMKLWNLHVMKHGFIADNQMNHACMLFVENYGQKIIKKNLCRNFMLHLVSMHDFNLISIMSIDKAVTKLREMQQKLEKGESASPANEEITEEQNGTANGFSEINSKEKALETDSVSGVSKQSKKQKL
EED (1-441)-His protein, sequence (O75530 whole entry): as the sequence (O75530 whole entry) above

With `CS(=O)(=O)c1ccc(-c2cnc(NCc3cccc4c3CCO4)n3cnnc23)c(F)c1` [Example 26, N-((2,3-dihydrobenzofuran-4-yl)methyl)-8-(2-fluoro-4-(methylsulfonyl)phenyl)-[1,2,4]triazolo[4,3-c]pyrimidin-5-amine] as the compound, how does the IC50 (EED (1-441)-His protein) read?
The IC50 was 9.9 nM.

What about the IC50 [1] of the same compound?
Its IC50 is 17.1 nM.

Which IC50 (EED (1-441)-His protein) does the source give for `Cc1nn(CCO)c(C)c1-c1cnc(NCc2c(F)ccc3c2CCO3)n2cnnc12` [Example 158, 2-(4-(5-(((5-fluoro-2,3-dihydrobenzofuran-4-yl)methyl)amino)-[1,2,4]triazolo[4,3-c]pyrimidin-8-yl)-3,5-dimethyl-1H-pyrazol-1-yl)ethanol] here?
Its IC50 is 5.1 nM.

And the IC50 [1]?
Its IC50 is 9.6 nM.

How did the IC50 (EED (1-441)-His protein) turn out when `Cc1cc(-c2cnc(NCc3cccc4c3CCO4)n3cnnc23)cnc1N1CCCC1` [Example 103, N-((2,3-dihydrobenzofuran-4-yl)methyl)-8-(5-methyl-6-(pyrrolidin-1-yl)pyridin-3-yl)-[1,2,4]triazolo[4,3-c]pyrimidin-5-amine] was run?
Its IC50 is 728 nM.

What about the IC50 [1] of the same compound?
Its IC50 is 431 nM.

Which results are given for `Cc1nc(C2CC2)ncc1-c1cnc(NCc2c(F)ccc3c2CCO3)n2cnnc12` [Example 8, 8-(2-cyclopropyl-4-methylpyrimidin-5-yl)-N-((5-fluoro-2,3-dihydrobenzofuran-4-yl)methyl)-[1,2,4]triazolo[4,3-c]pyrimidin-5-amine]?
IC50 (EED (1-441)-His protein): 4.9 nM; IC50 [1]: 7.2 nM

What does the source list for `Cc1ncc(-c2cnc(NCc3cccc4c3CCO4)n3cnnc23)cn1` [Example 60, N-((2,3-dihydrobenzofuran-4-yl)methyl)-8-(2-methylpyrimidin-5-yl)-[1,2,4]triazolo[4,3-c]pyrimidin-5-amine]?
IC50 (EED (1-441)-His protein): 19.5 nM; IC50 [1]: 47 nM

With `CC1(C)COC(c2ccc(-c3cnc(NCc4cccc5c4CCO5)n4cnnc34)cn2)=N1` [Example 101, N-((2,3-dihydrobenzofuran-4-yl)methyl)-8-(6-(4,4-dimethyl-4,5-dihydrooxazol-2-yl)pyridin-3-yl)-[1,2,4]triazolo[4,3-c]pyrimidin-5-amine] as the compound, how does the IC50 (EED (1-441)-His protein) read?
Its IC50 is 11.7 nM.

And the IC50 [1]?
Its IC50 is 13.6 nM.

What does the source list for `CC(c1ccc(-c2cnc(NCc3cccc4c3CCO4)n3cnnc23)cc1)N1CCCC1` (stereo not drawn) [Example 14, N-((2,3-dihydrobenzofuran-4-yl)methyl)-8-(4-(1-(pyrrolidin-1-yl)ethyl)phenyl)-[1,2,4]triazolo[4,3-c]pyrimidin-5-amine]?
IC50 (EED (1-441)-His protein): 7.8 nM; IC50 [1]: 12.8 nM

Which IC50 (EED (1-441)-His protein) does the source give for `CN(C)CCN(C)C(=O)c1ccc(-c2cnc(NCc3cccc4c3CCO4)n3cnnc23)cn1` [Example 102] here?
The IC50 was 33.9 nM.

And the IC50 [1]?
Its IC50 is 68.8 nM.

For `Cc1cnccc1-c1cnc(NCc2c(F)ccc3c2CCO3)n2cnnc12` [Example 163, N-((5-fluoro-2,3-dihydrobenzofuran-4-yl)methyl)-8-(3-methylpyridin-4-yl)-[1,2,4]triazolo[4,3-c]pyrimidin-5-amine], which IC50 (EED (1-441)-His protein) is on record?
The IC50 was 4.1 nM.

And the IC50 [1]?
Its IC50 is 10.9 nM.

Which IC50 (EED (1-441)-His protein) does the source give for `CC(=O)N1CCN(CCc2ccc(-c3cnc(NCc4cccc5c4CCO5)n4cnnc34)cn2)CC1` [Example 108, 1-(4-(2-(5-(5-(((2,3-dihydrobenzofuran-4-yl)methyl)amino)-[1,2,4]triazolo[4,3-c]pyrimidin-8-yl)pyridin-2-yl)ethyl)piperazin-1-yl)ethanone] here?
Its IC50 is 6.7 nM.

And the IC50 [1]?
Its IC50 is 11 nM.

What does the source list for `Cc1ccc(-c2cnc(NCc3c(F)ccc4c3CCO4)n3cnnc23)cn1` [Example 57, N-((5-fluoro-2,3-dihydrobenzofuran-4-yl)methyl)-8-(6-methylpyridin-3-yl)-[1,2,4]triazolo[4,3-c]pyrimidin-5-amine]?
IC50 (EED (1-441)-His protein): 8.4 nM; IC50 [1]: 18.6 nM

For `CS(=O)(=O)c1ccc(-c2cnc(NCc3cccc4occc34)n3cnnc23)cc1` [Example 214, N-(benzofuran-4-ylmethyl)-8-(4-(methylsulfonyl)phenyl)-[1,2,4]triazolo[4,3-c]pyrimidin-5-amine], which IC50 (EED (1-441)-His protein) is on record?
The IC50 was 37.4 nM.

And the IC50 [1]?
The IC50 was 22.5 nM.

`COC(=O)N1CCN(c2ccc(-c3cnc(NCc4cccc5c4CCO5)n4cnnc34)cn2)CC1` [Example 97, methyl 4-(5-(5-(((2,3-dihydrobenzofuran-4-yl)methyl)amino)-[1,2,4]triazolo[4,3-c]pyrimidin-8-yl)pyridin-2-yl)piperazine-1-carboxylate] was tested. Which IC50 (EED (1-441)-His protein) did it give?
Its IC50 is 6.1 nM.

And the IC50 [1]?
Its IC50 is 8.6 nM.

How did the IC50 (EED (1-441)-His protein) turn out when `COc1ccc(-c2cnc(NCc3c(F)ccc4c3CCO4)n3cnnc23)c(C)n1` [Example 155, N-((5-fluoro-2,3-dihydrobenzofuran-4-yl)methyl)-8-(6-methoxy-2-methylpyridin-3-yl)-[1,2,4]triazolo[4,3-c]pyrimidin-5-amine] was run?
Its IC50 is 17 nM.

And the IC50 [1]?
The IC50 was 45.3 nM.

With `FC1(F)CCN(CCc2ccc(-c3cnc(NCc4cccc5c4CCO5)n4cnnc34)cn2)C1` [Example 100, 8-(6-(2-(3,3-difluoropyrrolidin-1-yl)ethyl)pyridin-3-yl)-N-((2,3-dihydrobenzofuran-4-yl)methyl)-[1,2,4]triazolo[4,3-c]pyrimidin-5-amine] as the compound, how does the IC50 (EED (1-441)-His protein) read?
Its IC50 is 14 nM.

And the IC50 [1]?
The IC50 was 31.5 nM.

For `CC(c1ccc(-c2cnc(NCc3c(F)ccc4c3CCO4)n3cnnc23)cc1)N1CCCC1` (stereo not drawn) [Example 46, N-((5-fluoro-2,3-dihydrobenzofuran-4-yl)methyl)-8-(4-(1-(pyrrolidin-1-yl)ethyl)phenyl)-[1,2,4]triazolo[4,3-c]pyrimidin-5-amine], which IC50 (EED (1-441)-His protein) is on record?
Its IC50 is 43.5 nM.

What about the IC50 [1] of the same compound?
Its IC50 is 64 nM.

Which results are given for `Cc1cc(-c2cnc(NCc3c(F)ccc4c3CCO4)n3cnnc23)n(C)n1` [Example 1, 8-(1,3-dimethyl-1H-pyrazol-5-yl)-N-((5-fluoro-2,3-dihydrobenzofuran-4-yl)methyl)-[1,2,4]triazolo[4,3-c]pyrimidin-5-amine]?
IC50 (EED (1-441)-His protein): 4.1 nM; IC50 [1]: 8.2 nM

What does the source list for `CS(=O)(=O)c1ccc(-c2cnc(NCc3cccc4c3CCO4)n3cnnc23)cc1` [Example 12, N-((2,3-dihydrobenzofuran-4-yl)methyl)-8-(4-(methylsulfonyl)phenyl)-[1,2,4]triazolo[4,3-c]pyrimidin-5-amine]?
IC50 (EED (1-441)-His protein): 7.9 nM; IC50 [1]: 15.9 nM

Which results are given for `Cc1nn(C)cc1-c1cnc(NCc2cccc3c2CCO3)n2cnnc12` [Example 30, N-((2,3-dihydrobenzofuran-4-yl)methyl)-8-(1,3-dimethyl-1H-pyrazol-4-yl)-[1,2,4]triazolo[4,3-c]pyrimidin-5-amine]?
IC50 (EED (1-441)-His protein): 5.3 nM; IC50 [1]: 24.8 nM

Which IC50 (EED (1-441)-His protein) does the source give for `Cc1nn(C)cc1-c1cnc(NCc2c(F)ccc3c2CCO3)n2cnnc12` [Example 195, 8-(1,3-dimethyl-1H-pyrazol-4-yl)-N-((5-fluoro-2,3-dihydrobenzofuran-4-yl)methyl)-[1,2,4]triazolo[4,3-c]pyrimidin-5-amine] here?
Its IC50 is 5.9 nM.

What about the IC50 [1] of the same compound?
Its IC50 is 11.6 nM.

What does the source list for `Cc1nc(F)ccc1-c1cnc(NCc2c(F)ccc3c2CCO3)n2cnnc12` [Example 164, N-((5-fluoro-2,3-dihydrobenzofuran-4-yl)methyl)-8-(6-fluoro-2-methylpyridin-3-yl)-[1,2,4]triazolo[4,3-c]pyrimidin-5-amine]?
IC50 (EED (1-441)-His protein): 4.2 nM; IC50 [1]: 13.9 nM

What does the source list for `CC1(C)COC(c2cncc(-c3cnc(NCc4cccc5c4CCO5)n4cnnc34)c2)=N1` [Example 90, N-((2,3-dihydrobenzofuran-4-yl)methyl)-8-(5-(4,4-dimethyl-4,5-dihydrooxazol-2-yl)pyridin-3-yl)-[1,2,4]triazolo[4,3-c]pyrimidin-5-amine]?
IC50 (EED (1-441)-His protein): 13.1 nM; IC50 [1]: 30.3 nM

What does the source list for `Cc1nn(C(C)C)c(C)c1-c1cnc(NCc2c(F)ccc3c2CCO3)n2cnnc12` [Example 151, N-((5-fluoro-2,3-dihydrobenzofuran-4-yl)methyl)-8-(1-isopropyl-3,5-dimethyl-1H-pyrazol-4-yl)-[1,2,4]triazolo[4,3-c]pyrimidin-5-amine]?
IC50 (EED (1-441)-His protein): 13.1 nM; IC50 [1]: 21.6 nM

What does the source list for `CC1Cc2c(CNc3ncc(-c4ccc(CN(C)C)cc4)c4nncn34)cccc2O1` (stereo not drawn) [Example 22, 8-(4-((dimethylamino)methyl)phenyl)-N-((2-methyl-2,3-dihydrobenzofuran-4-yl)methyl)-[1,2,4]triazolo[4,3-c]pyrimidin-5-amine]?
IC50 (EED (1-441)-His protein): 1980 nM; IC50 [1]: 1820 nM

What does the source list for `Fc1ccc2c(c1CNc1ncc(-c3ccc(C(F)(F)F)nc3)c3nncn13)CCO2` [Example 160, N-((5-fluoro-2,3-dihydrobenzofuran-4-yl)methyl)-8-(6-(trifluoromethyl)pyridin-3-yl)-[1,2,4]triazolo[4,3-c]pyrimidin-5-amine]?
IC50 (EED (1-441)-His protein): 5.9 nM; IC50 [1]: 11.3 nM

How did the IC50 (EED (1-441)-His protein) turn out when `Cc1cc(-c2cnc(NCc3c(F)ccc4c3CCO4)n3cnnc23)c(C)cn1` [Example 194, 8-(2,5-dimethylpyridin-4-yl)-N-((5-fluoro-2,3-dihydrobenzofuran-4-yl)methyl)-[1,2,4]triazolo[4,3-c]pyrimidin-5-amine] was run?
The IC50 was 2.4 nM.

And the IC50 [1]?
The IC50 was 7 nM.

`Cc1nc(C2CC2)ccc1-c1cnc(NCc2c(F)ccc3c2CCO3)n2cnnc12` [Example 6, 8-(6-Cyclopropyl-2-methylpyridin-3-yl)-N-((5-fluoro-2,3-dihydrobenzofuran-4-yl)methyl)-[1,2,4]triazolo[4,3-c]pyrimidin-5-amine] was tested. Which IC50 (EED (1-441)-His protein) did it give?
The IC50 was 5.2 nM.

What about the IC50 [1] of the same compound?
Its IC50 is 7.7 nM.

Which results are given for `CCn1nccc1-c1cnc(NCc2c(F)ccc3c2CCO3)n2cnnc12` [Example 143, 8-(1-ethyl-1H-pyrazol-5-yl)-N-((5-fluoro-2,3-dihydrobenzofuran-4-yl)methyl)-[1,2,4]triazolo[4,3-c]pyrimidin-5-amine]?
IC50 (EED (1-441)-His protein): 18.1 nM; IC50 [1]: 31.5 nM

For `Cc1cnc(Cl)cc1-c1cnc(NCc2c(F)ccc3c2CCO3)n2cnnc12` [Example 228, 8-(2-chloro-5-methylpyridin-4-yl)-N-((5-fluoro-2,3-dihydrobenzofuran-4-yl)methyl)-[1,2,4]triazolo[4,3-c]pyrimidin-5-amine], which IC50 (EED (1-441)-His protein) is on record?
Its IC50 is 8.2 nM.

What about the IC50 [1] of the same compound?
Its IC50 is 9 nM.

With `Fc1ccc2c(c1CNc1ncc(-c3ccnnc3)c3nncn13)CCO2` [Example 202, N-((5-fluoro-2,3-dihydrobenzofuran-4-yl)methyl)-8-(pyridazin-4-yl)-[1,2,4]triazolo[4,3-c]pyrimidin-5-amine] as the compound, how does the IC50 (EED (1-441)-His protein) read?
Its IC50 is 9.6 nM.

What about the IC50 [1] of the same compound?
Its IC50 is 18.7 nM.
